Laboratory results published in patent US10899738B2 (THE REGENTS OF THE UNIVERSITY OF MICHIGAN, priority 2016, dated 2021).

Biological target: menin protein (Homo sapiens (Human), UniProt O00255)
Assay: biochemical
Format: binding
Conditions: FP competitive binding, menin protein 4 nM, FAM-MM2 probe 2 nM; for IC50: read-out: Menin Binding Affinity IC50
Method in brief: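 Competitive fluorescence polarization assay using FAM-labelled MLL1 peptide probe FAM-MM2 (2 nM final) preincubated with menin (4 nM final) in PBS with 0.02% bovine γ-globulin, 4% DMSO and 0.01% Triton X-100. Compounds were added and incubated 30 min at room temperature. IC50 came from nonlinear regression of competition curves, with Ki also derived.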

menin protein, sequence (O00255 whole entry): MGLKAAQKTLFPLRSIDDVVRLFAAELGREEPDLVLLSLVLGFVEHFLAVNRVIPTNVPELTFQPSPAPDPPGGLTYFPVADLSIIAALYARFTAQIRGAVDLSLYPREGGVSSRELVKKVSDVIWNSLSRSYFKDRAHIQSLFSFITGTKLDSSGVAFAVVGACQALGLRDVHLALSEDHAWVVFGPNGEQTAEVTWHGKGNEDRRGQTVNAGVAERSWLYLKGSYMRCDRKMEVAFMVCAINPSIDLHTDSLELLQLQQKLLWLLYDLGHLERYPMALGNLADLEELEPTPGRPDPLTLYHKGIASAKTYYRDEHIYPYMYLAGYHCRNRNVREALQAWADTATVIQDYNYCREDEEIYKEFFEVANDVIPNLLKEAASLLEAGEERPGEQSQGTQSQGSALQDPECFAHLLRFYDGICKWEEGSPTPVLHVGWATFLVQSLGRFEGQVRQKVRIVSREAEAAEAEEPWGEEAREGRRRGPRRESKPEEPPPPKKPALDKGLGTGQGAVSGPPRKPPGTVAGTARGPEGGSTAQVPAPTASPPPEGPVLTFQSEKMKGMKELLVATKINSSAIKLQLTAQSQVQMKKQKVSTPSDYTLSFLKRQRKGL

Structure (SMILES)	IC50 [nM]	Menin Binding Affinity IC50 (μM)
COC(=O)N[C@@H]1CCC[C@H]1C(C#N)(c1ccccc1)C1CCN(CC2CN(c3ccc(S(=O)(=O)c4ccc(C(=O)O)cc4)cc3)C2)CC1 (mixture of isomers) [compound 352, rac-4-((4-(3-((4-(cyano((1S,2R)-2-((methoxycarbonyl)amino)cyclopentyl)(phenyl)methyl)piperidin-1-yl)methyl)azetidin-1-yl)phenyl)sulfonyl)benzoic acid]	2700	–
CNC(=O)O[C@@H]1CCC[C@H]1C(Cn1cccc1)(c1ccccc1)C1CCN(CC2CN(c3ccc(S(=O)(=O)c4ccccc4)cc3)C2)CC1 (mixture of isomers) [compound 358, rac-(1R,2S)-2-(1-phenyl-1-(1-((1-(4-(phenylsulfonyl)phenyl)azetidin-3-yl)methyl)piperidin-4-yl)-2-(1H-pyrrol-1-yl)ethyl)cyclopentyl methylcarbamate]	221	–
CNC(=O)O[C@@H]1CCC[C@H]1C(CN1CCCC1)(c1ccccc1)C1CCN(CC2CN(c3ccc(S(=O)(=O)c4ccccc4)cc3)C2)CC1 (mixture of isomers) [compound 360, rac-(1R,2S)-2-(1-phenyl-1-(1-((1-(4-(phenylsulfonyl)phenyl)azetidin-3-yl)methyl)piperidin-4-yl)-2-(pyrrolidin-1-yl)ethyl)cyclopentyl methylcarbamate]	1400	–
CNC(=O)O[C@H]1CCC[C@@H]1C(CN1CCCC1)(c1ccccc1)C1CCN(CC2CN(c3ccc(S(=O)(=O)c4ccccc4)cc3)C2)CC1 (mixture of isomers) [compound 361, rac-(1S,2R)-2-(1-phenyl-1-(1-((1-(4-(phenylsulfonyl)phenyl)azetidin-3-yl)methyl)piperidin-4-yl)-2-(pyrrolidin-1-yl)ethyl)cyclopentyl methylcarbamate]	63	–
CNC(=O)O[C@@H]1CCC[C@H]1C(C#N)(c1ccccc1)C1CCN(CC2CN(c3ccc(C#N)cc3)C2)CC1 (mixture of isomers) [compound 364, rac-(1R,2S)-2-(cyano(1-((1-(4-cyanophenyl)azetidin-3-yl)methyl)piperidin-4-yl)(phenyl)methyl)cyclopentyl methylcarbamate]	3100	–
CNC(=O)O[C@@H]1CCC[C@H]1C(Cn1ccnc1)(c1ccccc1)C1CCN(CC2CN(c3ccc(C#N)cc3)C2)CC1 (mixture of isomers) [compound 365, rac-(1R,2S)-2-(1-(1-((1-(4-cyanophenyl)azetidin-3-yl)methyl)piperidin-4-yl)-2-(1H-imidazol-1-yl)-1-phenylethyl)cyclopentyl methylcarbamate]	281	–
CNC(=O)O[C@@H]1CCC[C@H]1C(C#N)(c1ccccc1)C1CCN(CC2CN(c3ccc(C(F)(F)F)cc3)C2)CC1 (mixture of isomers) [compound 368, rac-(1R,2S)-2-(cyano(phenyl)(1-((1-(4-(trifluoromethyl)phenyl)azetidin-3-yl)methyl)piperidin-4-yl)methyl)cyclopentyl methylcarbamate]	506	–
CNC(=O)O[C@@H]1CCC[C@H]1C(C#N)(c1ccccc1)C1CCN(CC2(F)CN(c3ccc(S(=O)(=O)c4cnn(C)c4)cc3)C2)CC1 (mixture of isomers) [compound 370, rac-(1R,2S)-2-(cyano(1-((3-fluoro-1-(4-((1-methyl-1H-pyrazol-4-yl)sulfonyl)phenyl)azetidin-3-yl)methyl)piperidin-4-yl)(phenyl)methyl)cyclopentyl methylcarbamate]	3600	–
CNC(=O)O[C@@H]1CCC[C@H]1C(C#N)(c1ccccc1)C1CCN(CC2(C)CN(c3ccc(S(=O)(=O)c4cnn(C)c4)cc3)C2)CC1 (mixture of isomers) [compound 371, rac-(1R,2S)-2-(cyano(1-((3-methyl-1-(4-((1-methyl-1H-pyrazol-4-yl)sulfonyl)phenyl)azetidin-3-yl)methyl)piperidin-4-yl)(phenyl)methyl)cyclopentyl methylcarbamate]	2100	–
CNC(=O)O[C@H]1CCC[C@@H]1C(C#N)(c1ccccc1)C1CCN(CC2CN(c3ccc(C(=O)OC)cc3)C2)CC1 (mixture of isomers) [compound 373, methyl rac-4-(3-((4-(cyano((1R,2S)-2-((methylcarbamoyl)oxy)cyclopentyl)(phenyl)methyl)piperidin-1-yl)methyl)azetidin-1-yl)benzoate]	112	–
CNC(=O)O[C@@H]1CCC[C@H]1C(C#N)(c1ccccc1)C1CCN(CC2CN(c3ccc(C(=O)OC)cc3)C2)CC1 (mixture of isomers) [compound 374, methyl rac-4-(3-((4-(cyano((1S,2R)-2-((methylcarbamoyl)oxy)cyclopentyl)(phenyl)methyl)piperidin-1-yl)methyl)azetidin-1-yl)benzoate]	4700	–
CN(C)C(=O)N[C@@H]1CCC[C@H]1C(Cn1ccnc1)(c1ccccc1)C1CCN(CC2CN(c3ccc(S(=O)(=O)c4cnn(C)c4)cc3)C2)CC1 (mixture of isomers) [compound 377, rac-3-((1R,2S)-2-(2-(1H-imidazol-1-yl)-1-(1-((1-(4-((1-methyl-1H-pyrazol-4-yl)sulfonyl)phenyl)azetidin-3-yl)methyl)piperidin-4-yl)-1-phenylethyl)cyclopentyl)-1,1-dimethylurea]	1130	–
CNC(=O)N[C@H]1CCC[C@@H]1C(CNC(=O)c1cocn1)(c1ccccc1)C1CCN(CC2CN(c3ccc(C#N)cc3)C2)CC1 (mixture of isomers) [compound 378, rac-N-(2-(1-((1-(4-cyanophenyl)azetidin-3-yl)methyl)piperidin-4-yl)-2-((1R,2S)-2-(3-methylureido)cyclopentyl)-2-phenylethyl)oxazole-4-carboxamide]	32	–
CNC(=O)N[C@@H]1CCC[C@H]1C(CNC(=O)c1cocn1)(c1ccccc1)C1CCN(CC2CN(c3ccc(C#N)cc3)C2)CC1 (mixture of isomers) [compound 379, rac-N-(2-(1-((1-(4-cyanophenyl)azetidin-3-yl)methyl)piperidin-4-yl)-2-((1S,2R)-2-(3-methylureido)cyclopentyl)-2-phenylethyl)oxazole-4-carboxamide]	3800	–
CNC(=O)O[C@H]1CCC[C@@H]1C(Cn1ccnc1)(c1ccccc1)C1CCN(C(=O)CCCc2ccc(C#N)cc2)CC1 (mixture of isomers) [compound 380, rac-(1S,2R)-2-(1-(1-(4-(4-cyanophenyl)butanoyl)piperidin-4-yl)-2-(1H-imidazol-1-yl)-1-phenylethyl)cyclopentyl methylcarbamate]	798	–
CC(=O)N[C@H]1CCC[C@@H]1C(C#N)(c1ccccc1)C1CCN(CC2CN(c3ccc(C#N)cc3)C2)CC1 (mixture of isomers) [compound 382, rac-N-((1S,2R)-2-(cyano(1-((1-(4-cyanophenyl)azetidin-3-yl)methyl)piperidin-4-yl)(phenyl)methyl)cyclopentyl)acetamide]	102	–
CC(=O)N[C@@H]1CCC[C@H]1C(C#N)(c1ccccc1)C1CCN(CC2CN(c3ccc(C#N)cc3)C2)CC1 (mixture of isomers) [compound 383, rac-N-((1R,2S)-2-(cyano(1-((1-(4-cyanophenyl)azetidin-3-yl)methyl)piperidin-4-yl)(phenyl)methyl)cyclopentyl)acetamide]	2500	–
CNC(=O)O[C@@H]1CCC[C@H]1C(C#N)(c1ccccc1)C1CCN(CC2CN(c3ccc([N+](=O)[O-])cc3)C2)CC1 (mixture of isomers) [compound 384, rac-(1R,2S)-2-(cyano(1-((1-(4-nitrophenyl)azetidin-3-yl)methyl)piperidin-4-yl)(phenyl)methyl)cyclopentyl methylcarbamate]	4600	–
CNC(=O)O[C@H]1CCC[C@@H]1C(C#N)(c1ccccc1)C1CCN(CC2CN(c3ccc([N+](=O)[O-])cc3)C2)CC1 (mixture of isomers) [compound 385, rac-(1S,2R)-2-(cyano(1-((1-(4-nitrophenyl)azetidin-3-yl)methyl)piperidin-4-yl)(phenyl)methyl)cyclopentyl methylcarbamate]	13	–
CC(=O)O[C@H]1CCC[C@@H]1C(C#N)(c1ccccc1)C1CCN(CC#Cc2ccc(C#N)cc2)CC1 (mixture of isomers) [compound 386, rac-(1S,2R)-2-(cyano(1-(3-(4-cyanophenyl)prop-2-yn-1-yl)piperidin-4-yl)(phenyl)methyl)cyclopentyl acetate]	–	No inhibition
CC(=O)O[C@@H]1CCC[C@H]1C(C#N)(c1ccccc1)C1CCN(CC#Cc2ccc(C#N)cc2)CC1 (mixture of isomers) [compound 387, rac-(1R,2S)-2-(cyano(1-(3-(4-cyanophenyl)prop-2-yn-1-yl)piperidin-4-yl)(phenyl)methyl)cyclopentyl acetate]	–	No inhibition
CC(=O)O[C@H]1CCC[C@@H]1C(C#N)(c1ccccc1)C1CCN(CC2CN(c3ccc(C(=O)O)cc3)C2)CC1 (mixture of isomers) [compound 388, rac-4-(3-((4-(((1R,2S)-2-acetoxycyclopentyl)(cyano) (phenyl)methyl)piperidin-1-yl)methyl)azetidin-1-yl)benzoic acid]	15100	–
CC(=O)O[C@@H]1CCC[C@H]1C(C#N)(c1ccccc1)C1CCN(CC2CN(c3ccc(C(=O)O)cc3)C2)CC1 (mixture of isomers) [compound 389, rac-4-(3-((4-(((1S,2R)-2-acetoxycyclopentyl)(cyano) (phenyl)methyl)piperidin-1-yl)methyl)azetidin-1-yl)benzoic acid]	6500	–
COC(=O)N[C@H]1CCC[C@@H]1C(C#N)(c1ccccc1)C1CCN(CC2CN(c3ccc(C(F)(F)F)cc3)C2)CC1 (mixture of isomers) [compound 401, methyl rac-((1S,2R)-2-(cyano(phenyl)(1-((1-(4-(trifluoromethyl)phenyl)azetidin-3-yl)methyl)piperidin-4-yl)methyl)cyclopentyl) carbamate]	89	–
COC(=O)N[C@H]1CCC[C@@H]1C(C#N)(c1ccccc1)C1CCN(CC2CN(c3ccccc3)C2)CC1 (mixture of isomers) [compound 402, methyl rac-((1S,2R)-2-(cyano(phenyl)(1-((1-phenylazetidin-3-yl)methyl)piperidin-4-yl)methyl)cyclopentyl) carbamate]	2400	–
